ChEMBL document CHEMBL4138123, “Design, synthesis and biological evaluation of novel pyrazolochalcones as potential modulators of PI3K/Akt/mTOR pathway and inducers of apoptosis in breast cancer cells” (Eur J Med Chem, 2017)

Key:
Type in all cases: functional
OVCAR-5 = assay: Cytotoxicity against human OVCAR5 cells assessed as cell growth at 0.1 uM after 48 hrs by sulforhodamine B assay relative to control; conditions: OVCAR-5, 48 h, read-out: Activity
BT-549 = assay: Cytotoxicity against human BT549 cells assessed as cell growth at 100 uM after 48 hrs by sulforhodamine B assay relative to control; conditions: BT-549, 48 h, read-out: Activity
786-0 [1] = assay: Cytotoxicity against human 786-0 cells assessed as cell growth at 0.01 uM after 48 hrs by sulforhodamine B assay relative to control; conditions: 786-0, 48 h, read-out: Activity
RXF 393 [2] = assay: Cytotoxicity against human RXF393 cells assessed as cell growth at 1 uM after 48 hrs by sulforhodamine B assay relative to control; conditions: RXF 393, 48 h, read-out: Activity
HCC 2998 [3] = assay: Cytotoxicity against human HCC2998 cells assessed as cell growth at 1 uM after 48 hrs by sulforhodamine B assay relative to control; conditions: HCC 2998, 48 h, read-out: Activity
MOLT-4 [4] = assay: Cytotoxicity against human MOLT4 cells assessed as cell growth at 10 uM after 48 hrs by sulforhodamine B assay relative to control; conditions: MOLT-4, 48 h, read-out: Activity
SNB-19 = assay: Cytotoxicity against human SNB19 cells assessed as cell growth at 1 uM after 48 hrs by sulforhodamine B assay relative to control; conditions: SNB-19, 48 h, read-out: Activity
HCT-15 [5] = assay: Cytotoxicity against human HCT15 cells assessed as cell growth at 1 uM after 48 hrs by sulforhodamine B assay relative to control; conditions: HCT-15, 48 h, read-out: Activity
RXF 393 [6] = assay: Cytotoxicity against human RXF393 cells assessed as cell growth at 0.1 uM after 48 hrs by sulforhodamine B assay relative to control; conditions: RXF 393, 48 h, read-out: Activity
A498 = assay: Cytotoxicity against human A498 cells assessed as cell growth at 1 uM after 48 hrs by sulforhodamine B assay relative to control; conditions: A498, 48 h, read-out: Activity
HCT-15 [7] = assay: Cytotoxicity against human HCT15 cells assessed as cell growth at 100 uM after 48 hrs by sulforhodamine B assay relative to control; conditions: HCT-15, 48 h, read-out: Activity
UO-31 = assay: Cytotoxicity against human UO31 cells assessed as cell growth at 0.1 uM after 48 hrs by sulforhodamine B assay relative to control; conditions: UO-31, 48 h, read-out: Activity
PC-3 = assay: Cytotoxicity against human PC3 cells assessed as growth inhibition after 48 hrs by sulforhodamine B assay; conditions: PC-3, 48 h
TK-10 = assay: Cytotoxicity against human TK10 cells assessed as cell growth at 10 uM after 48 hrs by sulforhodamine B assay relative to control; conditions: TK-10, 48 h, read-out: Activity
SK-MEL-28 [8] = assay: Cytotoxicity against human SK-MEL-28 cells assessed as cell growth at 100 uM after 48 hrs by sulforhodamine B assay relative to control; conditions: SK-MEL-28, 48 h, read-out: Activity
RPMI-8226 = assay: Cytotoxicity against human RPMI8226 cells assessed as growth inhibition after 48 hrs by sulforhodamine B assay; conditions: RPMI-8226, 48 h
HCT-15 [9] = assay: Cytotoxicity against human HCT15 cells assessed as cell growth at 0.1 uM after 48 hrs by sulforhodamine B assay relative to control; conditions: HCT-15, 48 h, read-out: Activity
MDA-MB-231 = assay: Cytotoxicity against human MDA-MB-231 cells assessed as cell growth at 0.1 uM after 48 hrs by sulforhodamine B assay relative to control; conditions: MDA-MB-231, 48 h, read-out: Activity
SK-OV-3 = assay: Cytotoxicity against human SKOV3 cells assessed as cell growth at 0.1 uM after 48 hrs by sulforhodamine B assay relative to control; conditions: SK-OV-3, 48 h, read-out: Activity
OVCAR-4 = assay: Cytotoxicity against human OVCAR4 cells assessed as cell growth at 10 uM after 48 hrs by sulforhodamine B assay relative to control; conditions: OVCAR-4, 48 h, read-out: Activity
786-0 [10] = assay: Cytotoxicity against human 786-0 cells assessed as cell growth at 1 uM after 48 hrs by sulforhodamine B assay relative to control; conditions: 786-0, 48 h, read-out: Activity
HCC 2998 [11] = assay: Cytotoxicity against human HCC2998 cells assessed as cell growth at 100 uM after 48 hrs by sulforhodamine B assay relative to control; conditions: HCC 2998, 48 h, read-out: Activity
U-251 = assay: Cytotoxicity against human U251 cells assessed as cell growth at 0.01 uM after 48 hrs by sulforhodamine B assay relative to control; conditions: U-251, 48 h, read-out: Activity
786-0 [12] = assay: Cytotoxicity against human 786-0 cells assessed as cell growth at 0.1 uM after 48 hrs by sulforhodamine B assay relative to control; conditions: 786-0, 48 h, read-out: Activity
IGROV-1 [13] = assay: Cytotoxicity against human IGROV1 cells assessed as cell growth at 0.01 uM after 48 hrs by sulforhodamine B assay relative to control; conditions: IGROV-1, 48 h, read-out: Activity
SK-MEL-28 [14] = assay: Cytotoxicity against human SK-MEL-28 cells assessed as cell growth at 0.01 uM after 48 hrs by sulforhodamine B assay relative to control; conditions: SK-MEL-28, 48 h, read-out: Activity
HT-29 = assay: Cytotoxicity against human HT-29 cells assessed as cell growth at 100 uM after 48 hrs by sulforhodamine B assay relative to control; conditions: HT-29, 48 h, read-out: Activity
UACC-62 = assay: Cytotoxicity against human UACC62 cells assessed as cell growth at 1 uM after 48 hrs by sulforhodamine B assay relative to control; conditions: UACC-62, 48 h, read-out: Activity
OVCAR-8 = assay: Cytotoxicity against human OVCAR8 cells assessed as cell growth at 0.01 uM after 48 hrs by sulforhodamine B assay relative to control; conditions: OVCAR-8, 48 h, read-out: Activity
MOLT-4 [15] = assay: Cytotoxicity against human MOLT4 cells assessed as growth inhibition after 48 hrs by sulforhodamine B assay; conditions: MOLT-4, 48 h
IGROV-1 [16] = assay: Cytotoxicity against human IGROV1 cells assessed as cell growth at 10 uM after 48 hrs by sulforhodamine B assay relative to control; conditions: IGROV-1, 48 h, read-out: Activity
NCI-H23 = assay: Cytotoxicity against human NCI-H23 cells assessed as growth inhibition after 48 hrs by sulforhodamine B assay; conditions: NCI-H23, 48 h
MDA-MB-435 = assay: Cytotoxicity against human MDA-MB-435 cells assessed as cell growth at 0.1 uM after 48 hrs by sulforhodamine B assay relative to control; conditions: MDA-MB-435, 48 h, read-out: Activity
K562 = assay: Cytotoxicity against human K562 cells assessed as cell growth at 1 uM after 48 hrs by sulforhodamine B assay relative to control; conditions: K562, 48 h, read-out: Activity
ACHN = assay: Cytotoxicity against human ACHN cells assessed as cell growth at 0.01 uM after 48 hrs by sulforhodamine B assay relative to control; conditions: read-out: Activity
NCI/ADR-RES = assay: Cytotoxicity against human NCI/ADR-RES cells assessed as cell growth at 10 uM after 48 hrs by sulforhodamine B assay relative to control; conditions: read-out: Activity
[17] = read-out: LC50 (the source's name)

## COc1cc(C(=O)/C=C/c2cc(-c3ccc4c(c3)OCO4)n[nH]2)cc(OC)c1OC
OVCAR-5
  growth at 0.1 µM: 99%
BT-549
  growth at 100 µM: -77%
786-0 [1]
  growth at 0.01 µM: 99%
RXF 393 [2]
  growth at 1 µM: 67%
HCC 2998 [3]
  growth at 1 µM: 100%
MOLT-4 [4]
  growth at 10 µM: -8%
SNB-19
  growth at 1 µM: 75%
HCT-15 [5]
  growth at 1 µM: 77%
RXF 393 [6]
  growth at 0.1 µM: 83%
A498
  growth at 1 µM: 79%
HCT-15 [7]
  growth at 100 µM: -45%
UO-31
  growth at 0.1 µM: 82%
PC-3
  GI50: 1.51 µM
  LC50: 12.4 µM
  TGI: 4.02 µM
TK-10
  growth at 10 µM: -18%
SK-MEL-28 [8]
  growth at 100 µM: -96%
RPMI-8226
  GI50: 0.56 µM
  LC50: > 100 µM
  TGI: 2.53 µM
HCT-15 [9]
  growth at 0.1 µM: 101%
MDA-MB-231
  growth at 0.1 µM: 98%
SK-OV-3
  growth at 0.1 µM: 105%
OVCAR-4
  growth at 10 µM: -28%
786-0 [10]
  growth at 1 µM: 98%
HCC 2998 [11]
  growth at 100 µM: -95%
U-251
  growth at 0.01 µM: 98%
786-0 [12]
  growth at 0.1 µM: 98%
IGROV-1 [13]
  growth at 0.01 µM: 101%
SK-MEL-28 [14]
  growth at 0.01 µM: 100%
HT-29
  growth at 100 µM: -45%
UACC-62
  growth at 1 µM: 89%
OVCAR-8
  growth at 0.01 µM: 98%
MOLT-4 [15]
  GI50: 2.71 µM
  TGI: 8.36 µM
MOLT-4 [15]; [17]
  CC50: > 100 µM
IGROV-1 [16]
  growth at 10 µM: -26%
NCI-H23
  GI50: 2.9 µM
  TGI: 10.3 µM
NCI-H23; [17]
  CC50: 40.3 µM
MDA-MB-435
  growth at 0.1 µM: 95%
K562
  growth at 1 µM: 74%
ACHN
  growth at 0.01 µM: 102%
NCI/ADR-RES
  growth at 10 µM: 2%
